“Also recorded” adds a separate entry of the source.
Key:
HPV31 pseudoviruses = experiment: HPV31 pseudovirus infection in HaCaT cells; type: cell-based
Description: FIG. 4. Compounds 13 and 14 can inhibit infection by multiple anogenital HPVs. Shown are results from infection experiments in HaCaT cells monitoring the efficiency of infection by HPV16, HPV11 and HPV31 pseudovirus carrying the firefly luciferase gene in the absence (0 μM, vehicle only) or increasing concentrations (0.1 to 100 μM) of Compound 13 or 14. The Y axis is the relative efficiency of infection (squares) or cell viability (circles) as a function of drug concentration (X axis). All data points represent the average of values from triplicate samples. […] Data for HPV16 is the also plotted in FIG. 2.
Compounds 13 and 14: inhibition of infection by multiple papillomavirus genotypes. The goal of this study is to identify compounds that inhibit all sexually transmitted HPVs. For this reason, we monitored the ability of Compounds 13 and 14 to inhibit infection of two additional papillomavirus pseudoviruses that were generated using the capsid proteins of two other sexually transmitted HPVs, high risk HPV31 and low risk HPV11. […]
At 4 hours prior to exposure of cell to pseudoviruses, compounds were added to plates in 1% DMSO final concentration at the indicated amounts. […] Cell viability was assessed in parallel plates by Luminescent Cell Viability Assay (Promega Cat. #G7571).

HPV16 virus = experiment: Wild type HPV16 infection in 293T cells, early viral gene expression by real time PCR; type: cell-based; conditions: 5 to 10 μM (FIG. 3: 10 μM), 48 hours post infection
Description: FIG. 3. Inhibition of infection by HPV 16 virus. Shown is the relative efficiency of infection by HPV16 virus in 293T cells as scored by quantifying early viral transcription using real time PCR for E2 (dark grey bars), E5 (white bars) and E7 (light grey bars) containing mRNAs at 48 hours post-infection in the absence (DMSO—vehicle only, values set at 100%) or the presence of the indicated compound (10 μM concentration). Data points shown are the average of triplicate sample values. The dotted line indicates the normalized value for no drug (set as 100% infection value).
The 21 selected compounds were also tested for their ability to inhibit infection by bonafide HPV16 in 293T cells by measuring early viral gene expression by real time PCR at 48 hours post infection (FIG. 3) after treatment of the cell with 5 to 10 μM of each compound. Consistently with the data of reporter gene assays, HPV early gene expression was inhibited by Compounds 4, 13, 14, 18 and 20. Given the large differences in IC50 and CD50, and the reproducible capacity to inhibit infection by HPV16 pseudovirus and HPV16 virus in different cell types, Compounds 13 and 14 were selected for further analysis.
After 2 day infection, total RNA was isolated from infected cell lysate and treated with DNase I (Promega) as previously. (Pyeon, D. et al., Establishment of human papillomavirus infection requires cell cycle progression, PLos Pathog. 2009 February; 5(2):e1000318. Epub 2009 Feb. 27). Complementary DNA (cDNA) was synthesized from the normalized total RNA with the SuperScript cDNA synthesis kit (Invitrogen). All oligonucleotide primers (0.5 μM) for PCR are previously published (Pyeon D. et al., Production of infectious human papillomavirus independently of viral replication and epithelial cell differentiation, Proc. Nat'l Acad. Sci. USA, 2005 Jun. 28; 102(26):9311-6, Epub 2005 Jun. 15) or listed in Table 2.
Conventional PCR was performed with Taq DNA polymerase (Promega) and the following cycle: denaturation at 94° C. for 5 min, 42 cycles of 94° C. for 30 sec., 55° C. for 1 min., and 72° C. for 1 min., followed by extension at 72° C. for 7 min. Final products were analyzed by 1% agarose gel electrophoresis and ethidium bromide staining. Quantitative RT-PCR was performed using QuantiTect SYBR green PCR kit (Qiagen) with the following cycle: denaturation at 95° C. for 5 min. and 40 cycles of 95° C. for 30 sec., 55° C. for 30 sec., and 72° C. for 30 sec.

in vitro [1] = conditions: human
Description: The protocol for the secondary screen was identical to that of the primary screen with the exception that all volumes were scaled up by a factor of four. RL activity was measured using the Renilla Luciferase Assay System (Promega).

in vitro [2] = conditions: human; remark: listed apart in the source

SMILES | IC50 (HPV31 pseudoviruses) [nM] | Inhibition of HPV16 early gene expression (E2, E5, E7 mRNAs) (HPV16 virus) | viability at 52 h, 3.3 μM (in vitro [1]) [%] | viability at 52 h, 3.3 μM (in vitro [2]) [%]
CCCn1c2ccccc2c2nnc(SC(CC)C(=O)Nc3ccc(Cl)cn3)nc21 (stereo not drawn) [Compound 13, N-(5-chloro-2-pyridinyl)-2-[(5-propyl-5H-[1,2,4]triazino[5,6-b]indol-3-yl)thio]butanamide] | 150 | reproducible and significant inhibition; also recorded: inhibited | – | –
Cc1cc(C(c2ccc(F)cc2)c2cc(C)c(NC(=O)c3ccccc3)c(C)c2)cc(C)c1NC(=O)c1ccccc1 [Compound 14, N,N′[[(4-fluorophenyl)methylene]bis(2,6-dimethyl-4,1-phenylene)]dibenzamide] | < 100 | reproducible and significant inhibition; also recorded: inhibited | 106 | 106

— patent US9949980B2, “Drugs to prevent HPV infection” (Wisconsin Alumni Research Foundation, priority 2008, dated 2018)
